Like-named read-outs stand apart in the source and are kept apart here.
Assays:
human UGT1A9*2 = target: T1, human UGT1A9*2 (Homo sapiens, UniProt O60656, C3Y); assay: Glucuronidation by microsomes of HEK-293 cells stably expressing UGT1A9*2; settings: for Vmax / Km: SN-38 glucuronidation
T1 sequence (O60656 26-530): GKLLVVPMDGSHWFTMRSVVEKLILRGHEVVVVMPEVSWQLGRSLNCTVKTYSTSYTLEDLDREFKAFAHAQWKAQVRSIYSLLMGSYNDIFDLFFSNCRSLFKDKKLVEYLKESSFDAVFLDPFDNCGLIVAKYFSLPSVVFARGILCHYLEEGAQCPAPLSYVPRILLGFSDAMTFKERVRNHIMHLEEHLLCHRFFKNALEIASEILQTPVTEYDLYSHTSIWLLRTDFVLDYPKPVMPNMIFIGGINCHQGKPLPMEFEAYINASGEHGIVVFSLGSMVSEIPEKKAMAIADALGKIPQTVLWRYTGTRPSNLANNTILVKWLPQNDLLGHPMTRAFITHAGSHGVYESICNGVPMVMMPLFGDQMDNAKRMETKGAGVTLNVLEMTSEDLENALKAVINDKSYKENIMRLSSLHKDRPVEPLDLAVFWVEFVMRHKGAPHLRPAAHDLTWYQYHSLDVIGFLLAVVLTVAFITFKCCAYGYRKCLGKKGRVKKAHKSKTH
Method: Microsomal fractions from HEK-293 cells stably expressing human UGT1A9*1, UGT1A9*2 and UGT1A9*3 were used in enzymatic assays. Reactions (100 μl volume) contained 50 mM Tris-HCl, pH 7.3, 10 mM MgCl2, 100 μg/mL phosphatidylcholine, 1 mM UDP-glucuronic acid, 40 to 60 μg of membrane protein. […] Human liver microsome were incubated in the same condition for control. Reaction was stopped by the addition of 200 μL MeOH+1% HCl 2N, followed by centrifugation at 14000 rpm for 10 minutes. Supernatant was filtered through a 0.22 μm filter and 100 μL of water was added. For SN-38 and SN-38-glucuronide detection, 10 μL samples were injected on a liquid chromatographic system coupled to a fluorescence detector. Time-course experiments were realized to determine the linearity of the glucuronidation reaction.
A liquid chromatographic method was developed to quantify SN-38 glucuronidation of UGT cell line-derived microsomes and human liver microsomes. Samples were analyzed using high performance liquid chromatography (Alliance 2695, Waters, Milford, Mass.). […] At a constant flow rate (0.7 ml/min), a linear gradient from 20 to 65% B was run over 3 min, held 0.8 min and a second gradient until 95% of B was run over 2 min and then re-equilibrated to 20% B over 2 min. The effluent from the HPLC system (Alliance 2695) was connected directly to a fluorescence detector (Waters, Milford, Mass.) using an excitation wavelength of […] and an emission of 460 nm. […] Determination of the glucuronidation rates obtained with other substrates was performed as currently known in the art.
Microsomal fractions from HEK293 (40 to 60 μg) were added to a reaction mixture (100 μL) containing 50 mM Tris-HCl, pH 7.3, 10 mM MgCl2, 100 μg/mL phosphatidylcholine and 2 mM UDP-glucuronic acid. […] Commercially available human liver microsomes (Human Cell Culture Center Inc., Laurel, Md.) were incubated in the same conditions for all experiments. Time-course experiments were performed to determine the linearity of the glucuronidation reaction. For the determination of Vmax and Km. HEK293 cells stably expressing UGT1A9 enzymes were incubated in the presence of various concentrations of SN-38 ranging from 0.1 to 200 μM and incubated for 30 min as described above whereas UGT1A7 membranes preparations were incubated for 3 hours. […] Reactions with SN-38 were stopped by the addition of 200 μL MeOH+1% HCl 2N, followed by centrifugation at 14000×g for 10 minutes. The supernatants were filtered through a 0.22 μm membrane and 100 μL of water was added to the filtrate. For the detection of SN-38 and its glucuronide (SN-38G), 10 μL samples were injected in a liquid chromatographic system (HPLC) coupled to fluorescence detector as described below.
A HPLC method was developed to quantify the rates of SN-38 glucuronidation from the various microsomal fractions under study. The HPLC system used was an Alliance 2695 (Waters, Milford, Mass.) equipped with a 50×3.2 mm Colombus C18 column (Phenomenex, Torrance, Calif.). […] Then a second gradient ranging from 65% to 95% solvent B was generated during the following 2 min. Finally, the column was re-equilibrated to 20% solvent B for 2 min. The column was connected to a fluorescence detector model 474 (Waters, Milford, Mass.) and the molecules were excited at a wavelength of 370 nm and an emission of 425 nm.

UGT1A7*2 = target: T2, UGT1A7*2 (Homo sapiens, UniProt Q9HAW7, N129K/R131K); assay: SN-38 glucuronidation by microsomes of HEK293 cells expressing UGT1A7*2; format: in vitro ADME; design: key to Function (SN-38G formation versus *1 allele): High: no significant difference in activity compared to *1 allele.; Low: significantly lower SN-38G formation versus *1 allele
T2 construct: expressed in transfected cells
T2 sequence (Q9HAW7 26-530 N129K/R131K): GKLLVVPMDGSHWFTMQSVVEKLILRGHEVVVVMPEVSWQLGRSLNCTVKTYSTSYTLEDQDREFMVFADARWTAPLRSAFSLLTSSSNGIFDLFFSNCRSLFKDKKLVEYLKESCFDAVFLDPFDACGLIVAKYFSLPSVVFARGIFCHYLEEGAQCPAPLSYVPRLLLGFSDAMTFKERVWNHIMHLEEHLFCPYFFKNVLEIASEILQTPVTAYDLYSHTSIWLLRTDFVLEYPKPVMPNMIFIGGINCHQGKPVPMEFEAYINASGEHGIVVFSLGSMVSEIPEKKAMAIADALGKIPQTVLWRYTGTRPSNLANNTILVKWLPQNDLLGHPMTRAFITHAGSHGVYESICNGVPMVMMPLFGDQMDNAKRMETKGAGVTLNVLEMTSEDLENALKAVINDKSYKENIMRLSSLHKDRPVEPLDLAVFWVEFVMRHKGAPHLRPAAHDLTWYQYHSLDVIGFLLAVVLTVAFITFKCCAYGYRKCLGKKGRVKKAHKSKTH
Method: Western blot analyses of UGT1A7 and UGT1A9 variants expressed in HEK293 cells were performed on microsomal proteins (10 μg) separated on a 10% SDS-polyacrylamide gel. After transferring the proteins, the membranes were probed with an anti-UGT1A RC-71 polyclonal antibody and with an anti-calnexin antibody. The relative levels of UGT1A9 (a) and UGT1A7 proteins (b) were determined by semi-quantitative densitometric analysis of the Enhanced chemiluminescence (ECL) image. The in vitro SN-38 activity was assessed using microsomal fractions prepared from HEK293 cells expressing the *1 and variant UGT1A9 (c) and UGT1A7 (d) alleles and incubated with 5 μM of SN-38 as described in Materials and Methods.
For the determination of Vmax and Km.

CCc1c2c(nc3ccc(O)cc13)-c1cc3c(c(=O)n1C2)COC(=O)[C@]3(O)CC [SN-38, 7-ethyl-10-hydroxycamptothecin]
effect on conjugation rate of SN-38 (in words) (human UGT1A9*2; 5 μM of SN-38, versus wild type): no significant effect
Vmax (human UGT1A9*2; 0.1 to 200 μM, mean±SD): 324.38 ± 95.09 pmol/min/mg protein
Km (human UGT1A9*2; Table 5): 5.15 ± 1.81 µM
Vmax (human UGT1A9*2; Table 5): 324.68 ± 95.09
Km (human UGT1A9*2; read-out: Apparent Km, 0.1 to 200 μM, mean±SD, Lineweaver-Burk): 5.15 ± 1.81 µM
increased activity (SN-38 conjugation) (human UGT1A9*2; tyrosine at codon 3, versus UGT1A9*1): 16.7%
SN-38 glucuronidating activity of the allele (in words) (UGT1A7*2): highest
Function (SN-38G formation versus *1 allele) (UGT1A7*2; in vitro experiments): High
